Assay results reported in patent publication US20230242964A1, “BIODEGRADABLE BIOCHEMICAL SENSOR FOR DETERMINING THE PRESENCE AND/OR THE LEVEL OF PESTICIDES OR ENDOCRINE DISRUPTORS: METHOD AND COMPOSITION” (priority 2018, published 2023).

Tests used:
E. coli EPSP Synthase = E. coli EPSP Synthase (Escherichia coli, UniProt P0A6D3); experiment: EPSP synthase network #2B plugged to phosphate detection
Excerpt: The entry of the network is composed of: the EPSP synthase that uses the phospho-enol pyruvate (PEP) and the 3-phospho Shikimate to produce 5-O-(1-caroxyvinyl)-3-phosphoshikimate and inorganic phosphate.
Then 2 different networks have been tested: • One that converts the inorganic phosphate (Pi): Pi is combined with Inosine in the presence of the purine nucleoside phosphorylase to give Hypoxanthine. The Hypoxantine lead to Xanthine and H2O2 in the presence of Xanthine Oxidase. The Horseradish peroxidase uses the H2O2 to convert the O-dianisidine or the Amplex Red and give a colorimetric or fluorimetric signal detectable.
First, the network has been tested in liquid buffer without vesicle or gel. […] Reaction was followed for 1 hour at 25° C. by registering the absorbance at 450 nm on a spectrophotometer. • One that converts the 5-O-(1-caroxyvinyl)-3-phosphoshikimate produced by the EPSP synthase: 5-O-(1-caroxyvinyl)-3-phosphoshikimate is metabolized by the Chorismate Synthase to give chorismate. This Chorismate is then transformed in pyruvate by the chorismate Lyase. Finaly the pyruvate is used by the Lactate dehydrogenase in the presence of NADH to give lactate and NAD+. The NADH consumption is followed by the change of fluorescence emission at 445 nm (Excitation at 340 nm)—or change of absorbance at 340 nm on a spectrophotometer. • 3.
The reaction was followed by the change of fluorescence on a fluorimeter (Excitation at 530 nm/Emission at 590 nm) or by the change of absorbance at 450 nm on a spectrophotometer. It allowed us to determine the activity of the EPSP synthase toward Phosphoenol Pyruvate (PEP).

BliGO SCF4 mutant = settings: cited from earlier work
[1] = target: T1, Bacillus subtilis H244K Glycine/Glyphosate oxidase (Bacillus subtilis, UniProt O31616, H244K); experiment: Glycine biochemical network #3, Amplex red/HRP fluorescence and colorimetric readout; settings: glyphosate at 100 μM, Tris buffer 50 mM pH 7,5
T1 construct: purchased Creative enzyme NATE-1674
T1 sequence (O31616 whole entry H244K): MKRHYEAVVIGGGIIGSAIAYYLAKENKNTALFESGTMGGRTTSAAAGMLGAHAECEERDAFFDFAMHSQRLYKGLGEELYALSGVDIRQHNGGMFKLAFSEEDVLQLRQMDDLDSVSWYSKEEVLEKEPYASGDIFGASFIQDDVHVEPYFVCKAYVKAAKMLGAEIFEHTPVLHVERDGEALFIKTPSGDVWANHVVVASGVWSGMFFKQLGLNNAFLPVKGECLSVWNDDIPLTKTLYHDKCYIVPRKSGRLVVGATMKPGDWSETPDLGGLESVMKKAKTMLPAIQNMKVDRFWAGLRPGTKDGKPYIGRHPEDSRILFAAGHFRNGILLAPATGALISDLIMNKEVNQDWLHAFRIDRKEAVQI
Excerpt: It allowed us to detect the glycine.

Sequence of E. coli EPSP Synthase (P0A6D3 whole entry): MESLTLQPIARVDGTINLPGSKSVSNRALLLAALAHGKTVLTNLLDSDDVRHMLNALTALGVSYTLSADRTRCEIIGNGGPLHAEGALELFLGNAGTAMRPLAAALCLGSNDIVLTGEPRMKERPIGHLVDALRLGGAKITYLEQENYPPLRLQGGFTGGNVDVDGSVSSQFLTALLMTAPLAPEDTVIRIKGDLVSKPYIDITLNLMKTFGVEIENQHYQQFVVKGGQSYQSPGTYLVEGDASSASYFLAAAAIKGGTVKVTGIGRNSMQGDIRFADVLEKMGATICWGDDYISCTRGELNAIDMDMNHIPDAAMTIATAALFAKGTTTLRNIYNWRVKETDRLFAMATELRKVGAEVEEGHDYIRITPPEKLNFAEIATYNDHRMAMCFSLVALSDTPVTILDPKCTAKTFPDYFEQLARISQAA

Q: For `C=C(OP(=O)(O)O)C(=O)O` [PEP, phosphoenolpyruvate], which “EPSP affinity for PEP” value (E. coli EPSP Synthase; 50 mM Hepes pH 7, 25° C.) is on record?
A: The value was 14 µM.

Q: And the “Vmax of EPSP synthase toward PEP” value (E. coli EPSP Synthase; 50 mM Hepes pH 7, 25° C.)?
A: The value was 1.026e-08 mol/L/s.

Q: For `NCC(=O)O` [glycine], which “decrease of activity to glycine compared to WT” value (BliGO SCF4 mutant; BliGO SCF4 mutant vs WT) is on record?
A: Its value is 113 fold.

Q: Which “detection by network #3” value [1] does the source give for `O=C(O)CNCP(=O)(O)O` [glyphosate] here?
A: Its value is “absence of detection”.

Q: And the “effect on the EPSP synthase” value (E. coli EPSP Synthase; glyphosate 0 to 2 mM, concentration dependent)?
A: The value was “inhibitory effect”.

Q: And the “increase of affinity toward glyphosate compared to WT” value (BliGO SCF4 mutant; BliGO SCF4 mutant vs WT)?
A: The value was 8 fold.

Q: What about the affinity toward glyphosate (BliGO SCF4 mutant; BliGO SCF4 mutant) of the same compound?
A: The affinity toward glyphosate was 1.58 mM.
